The data set is described as follows: Half-lives and pharmacokinetic parameters of polypeptides vs HM-1. Also on record: AUC0-∞: concentration or dose not given beside the values. Particulars: in vivo.
Setting [1] is: read-out: T1/2β (half-life) (converted).

Read-outs that look alike come from different tables or passages of the source. Peptide text beside a SMILES is read from it. * marks the point of attachment. Hexanoyl(6-maleimido) = O=C1C=CC(=O)N1CCCCCC(=O)*; Propanoyl(3-maleimido) = O=C1C=CC(=O)N1CCC(=O)*

As for `CSCC[C@H](NC(=O)[C@H](Cc1c[nH]cn1)NC(=O)[C@H](CCC(N)=O)NC(=O)[C@H](CCCNC(=N)N)NC(=O)CCN1C(=O)C=CC1=O)C(=O)N[C@@H](Cc1ccccc1)C(=O)N[C@@H](CO)C(=O)N[C@@H](Cc1c[nH]c2ccccc12)C(=O)N[C@H](C(=O)N[C@@H](CC(C)C)C(=O)N[C@@H](C)C(=O)N[C@@H](CCCNC(=N)N)C(=O)N[C@@H](CC(N)=O)C(=O)N[C@@H](CC(=O)O)C(=O)N[C@@H](CCC(N)=O)C(=O)N[C@@H](CCC(=O)O)C(=O)N[C@@H](CCC(=O)O)C(=O)N[C@@H](CCCNC(=N)N)C(=O)NCC(=O)N[C@@H](CC(=O)O)C(=O)O)C(C)C` [P1] ({Propanoyl(3-maleimido)}-RQHMFSWVLARNDQEERGD-OH; C-terminus assumed), the “AUC0-∞” value is 0.0336 ± 0.0083 mg/L/h. Further, the half-life under setting [1] was 36.96 ± 0.25 h.

`CSCC[C@H](NC(=O)[C@H](Cc1c[nH]cn1)NC(=O)[C@H](CCC(N)=O)NC(=O)[C@H](CCCNC(=N)N)NC(=O)CCCCCN1C(=O)C=CC1=O)C(=O)N[C@@H](Cc1ccccc1)C(=O)N[C@@H](CO)C(=O)N[C@@H](Cc1c[nH]c2ccccc12)C(=O)N[C@H](C(=O)N[C@@H](CC(C)C)C(=O)N[C@@H](C)C(=O)N[C@@H](CCCNC(=N)N)C(=O)N[C@@H](CC(N)=O)C(=O)N[C@@H](CC(=O)O)C(=O)N[C@@H](CCC(N)=O)C(=O)N[C@@H](CCC(=O)O)C(=O)N[C@@H](CCC(=O)O)C(=O)N[C@@H](CCCNC(=N)N)C(=O)NCC(=O)N[C@@H](CC(=O)O)C(=O)O)C(C)C` [P2] ({Hexanoyl(6-maleimido)}-RQHMFSWVLARNDQEERGD-OH; C-terminus assumed): the “AUC0-∞” value is reported as 0.0350 ± 0.0076 mg/L/h. For the same molecule, under setting [1], the half-life is 35.48 ± 0.3 h.

In the case of `CC[C@H](C)[C@H](NC(=O)[C@H](Cc1c[nH]cn1)NC(=O)[C@H](CCC(N)=O)NC(=O)[C@H](CCCNC(=N)N)NC(=O)CCN1C(=O)C=CC1=O)C(=O)N[C@@H](Cc1ccccc1)C(=O)N1CCC[C@H]1C(=O)N[C@@H](CO)C(=O)N[C@@H](Cc1c[nH]c2ccccc12)C(=O)N[C@@H](Cc1c[nH]c2ccccc12)C(=O)N[C@@H](Cc1ccccc1)C(=O)N[C@@H](Cc1c[nH]c2ccccc12)C(=O)N[C@@H](Cc1ccc(O)cc1)C(=O)N[C@@H](Cc1ccc(O)cc1)C(=O)N1CCC[C@H]1C(=O)N[C@@H](CC(=O)O)C(=O)N[C@@H](CCCNC(=N)N)C(=O)N[C@@H](CC(C)C)C(=O)N[C@@H](CCCCN)C(=O)N[C@@H](CCSC)C(=O)N[C@@H](CCCNC(=N)N)C(=O)NCC(=O)N[C@@H](CC(=O)O)C(=O)O` [P3] ({Propanoyl(3-maleimido)}-RQHIFPSWWFWYYPDRLKMRGD-OH; C-terminus assumed), the “AUC0-∞” value is 0.0319 ± 0.0076 mg/L/h. Further, the half-life under setting [1] was 38.89 ± 0.3 h.

Consider `CC[C@H](C)[C@H](NC(=O)[C@H](Cc1c[nH]cn1)NC(=O)[C@H](CCC(N)=O)NC(=O)[C@H](CCCNC(=N)N)NC(=O)CCCCCN1C(=O)C=CC1=O)C(=O)N[C@@H](Cc1ccccc1)C(=O)N1CCC[C@H]1C(=O)N[C@@H](CO)C(=O)N[C@H](C(=O)N[C@@H](Cc1c[nH]c2ccccc12)C(=O)N[C@@H](Cc1ccccc1)C(=O)N[C@@H](Cc1c[nH]c2ccccc12)C(=O)N[C@@H](Cc1ccc(O)cc1)C(=O)N[C@@H](Cc1ccc(O)cc1)C(=O)N1CCC[C@H]1C(=O)N[C@@H](CC(=O)O)C(=O)N[C@@H](CCCNC(=N)N)C(=O)N[C@@H](CC(C)C)C(=O)N[C@@H](CCCCN)C(=O)N[C@@H](CCSC)C(=O)N[C@@H](CCCNC(=N)N)C(=O)N[C@@H](CCC(=O)O)C(=O)N[C@@H](CC(=O)O)C(=O)O)[C@@H](C)O` [P4] ({Hexanoyl(6-maleimido)}-RQHIFPSTWFWYYPDRLKMRED-OH; C-terminus assumed), for which the “AUC0-∞” value is recorded as 0.0391 ± 0.0066 mg/L/h. For the same molecule, the half-life under setting [1] was 31.72 ± 0.26 h.

On to `C[C@H](NC(=O)[C@H](CCCNC(=N)N)NC(=O)[C@H](CC(=O)O)NC(=O)[C@H](CCC(=O)O)NC(=O)CNC(=O)[C@H](CCCNC(=N)N)NC(=O)CCN1C(=O)C=CC1=O)C(=O)NCC(=O)NCC(=O)NCC(=O)NCC(=O)N[C@@H](CCCNC(=N)N)C(=O)NCC(=O)N[C@@H](CC(=O)O)C(=O)O` [P5] ({Propanoyl(3-maleimido)}-RGEDRAGGGGRGD-OH; C-terminus assumed), for which the AUC(0-inf) was 29.2 ± 7.88 µg·h/mL, the MRT inf is 52.4 ± 12.2 h, the clearance is 0.0342 L/h/kg and the half-life is 36.28 ± 0.25 h.

In the case of `C[C@H](NC(=O)[C@H](CCCNC(=N)N)NC(=O)[C@H](CC(=O)O)NC(=O)[C@H](CCC(=O)O)NC(=O)CNC(=O)[C@H](CCCNC(=N)N)NC(=O)CCCCCN1C(=O)C=CC1=O)C(=O)NCC(=O)NCC(=O)NCC(=O)NCC(=O)N[C@@H](CCCNC(=N)N)C(=O)NCC(=O)N[C@@H](CC(=O)O)C(=O)O` [P6] ({Hexanoyl(6-maleimido)}-RGEDRAGGGGRGD-OH; C-terminus assumed), the AUC(0-inf) came to 27.7 ± 7.13 µg·h/mL, the MRT inf was determined as 49.6 ± 9.97 h, the clearance was 0.0361 L/h/kg and the half-life is 34.36 ± 0.25 h.

For `C[C@H](NC(=O)[C@H](CCCNC(=N)N)NC(=O)[C@H](CC(=O)O)NC(=O)CNC(=O)[C@H](CCCNC(=N)N)NC(=O)CCN1C(=O)C=CC1=O)C(=O)NCC(=O)NCC(=O)NCC(=O)NCC(=O)N[C@@H](CCCNC(=N)N)C(=O)NCC(=O)N[C@@H](CC(=O)O)C(=O)O` [P7] ({Propanoyl(3-maleimido)}-RGDRAGGGGRGD-OH; C-terminus assumed), the AUC(0-inf) (read-out: AUC0-∞) worked out at 31.9 ± 7.82 µg·h/mL. The clearance (read-out: CL (converted)) was 0.0313 L/h/kg. Besides, the MRT inf (read-out: MRT0-∞) was 57.2 ± 13.9 h. Moreover, the half-life under setting [1] is 39.63 ± 0.28 h.

Take `C[C@H](NC(=O)[C@H](CCCNC(=N)N)NC(=O)[C@H](CC(=O)O)NC(=O)CNC(=O)[C@H](CCCNC(=N)N)NC(=O)CCCCCN1C(=O)C=CC1=O)C(=O)NCC(=O)NCC(=O)NCC(=O)NCC(=O)N[C@@H](CCCNC(=N)N)C(=O)NCC(=O)N[C@@H](CC(=O)O)C(=O)O` [P8] ({Hexanoyl(6-maleimido)}-RGDRAGGGGRGD-OH; C-terminus assumed): the AUC(0-inf) (read-out: AUC0-∞) was 31.2 ± 8.09 µg·h/mL. In addition, the clearance (read-out: CL (converted)) was 0.0321 L/h/kg. Moreover, the MRT inf (read-out: MRT0-∞) amounted to 55.8 ± 13.4 h. Under setting [1], the half-life is 38.67 ± 0.27 h.

Regarding `CC(C)[C@H](NC(=O)[C@H](C)NC(=O)CNC(=O)[C@H](CCCNC(=N)N)NC(=O)CCN1C(=O)C=CC1=O)C(=O)N[C@@H](CC(=O)O)C(=O)N[C@@H](CCCNC(=N)N)C(=O)N[C@@H](C)C(=O)NCC(=O)NCC(=O)NCC(=O)NCC(=O)N[C@@H](CCCNC(=N)N)C(=O)NCC(=O)N[C@@H](CC(=O)O)C(=O)O` [P9] ({Propanoyl(3-maleimido)}-RGAVDRAGGGGRGD-OH; C-terminus assumed), the AUC(0-inf) (read-out: AUC0-∞) worked out at 27.9 ± 6.88 µg·h/mL. Further, the clearance (read-out: CL (converted)) is 0.0358 L/h/kg. The MRT inf (read-out: MRT0-∞) came out at 50 ± 10.7 h. Moreover, the half-life under setting [1] was 34.64 ± 0.3 h.

As to `CC(C)[C@H](NC(=O)[C@H](C)NC(=O)CNC(=O)[C@H](CCCNC(=N)N)NC(=O)CCCCCN1C(=O)C=CC1=O)C(=O)N[C@@H](CC(=O)O)C(=O)N[C@@H](CCCNC(=N)N)C(=O)N[C@@H](C)C(=O)NCC(=O)NCC(=O)NCC(=O)NCC(=O)N[C@@H](CCCNC(=N)N)C(=O)NCC(=O)N[C@@H](CC(=O)O)C(=O)O` [P10] ({Hexanoyl(6-maleimido)}-RGAVDRAGGGGRGD-OH; C-terminus assumed), under “read-out: AUC0-∞”, the AUC(0-inf) came out at 24.6 ± 7.03 µg·h/mL. Further, the clearance (read-out: CL (converted)) was 0.0406 L/h/kg. The MRT inf (read-out: MRT0-∞) was 44.1 ± 11 h. Also, the half-life under setting [1] was 30.6 ± 0.31 h.

Turning to `C[C@H](NC(=O)CNC(=O)[C@H](CCCNC(=N)N)NC(=O)CCN1C(=O)C=CC1=O)C(=O)N[C@@H](CC(=O)O)C(=O)N[C@@H](CCCNC(=N)N)C(=O)N[C@@H](C)C(=O)N[C@@H](CCC(=O)O)C(=O)N[C@@H](C)C(=O)N[C@@H](C)C(=O)N[C@@H](C)C(=O)N[C@@H](CCCCN)C(=O)N[C@@H](CCCNC(=N)N)C(=O)NCC(=O)N[C@@H](CC(=O)O)C(=O)O` [P11] ({Propanoyl(3-maleimido)}-RGADRAEAAAKRGD-OH), the AUC(0-inf) (read-out: AUC0-∞) is 31.6 ± 8.23 µg·h/mL. The clearance (read-out: CL (converted)) was 0.0317 L/h/kg. Also, the MRT inf (read-out: MRT0-∞) was 56.5 ± 11.6 h. Besides, the half-life under setting [1] was 39.16 ± 0.31 h.

On to `C[C@H](NC(=O)CNC(=O)[C@H](CCCNC(=N)N)NC(=O)CCCCCN1C(=O)C=CC1=O)C(=O)N[C@@H](CC(=O)O)C(=O)N[C@@H](CCCNC(=N)N)C(=O)N[C@@H](C)C(=O)N[C@@H](CCC(=O)O)C(=O)N[C@@H](C)C(=O)N[C@@H](C)C(=O)N[C@@H](C)C(=O)N[C@@H](CCCCN)C(=O)N[C@@H](CCCNC(=N)N)C(=O)NCC(=O)N[C@@H](CC(=O)O)C(=O)O` [P12] ({Hexanoyl(6-maleimido)}-RGADRAEAAAKRGD-OH; C-terminus assumed), for which the AUC(0-inf) (read-out: AUC0-∞) stood at 34 ± 6.88 µg·h/mL. Besides, where the note is “read-out: CL (converted)”, the clearance is 0.0294 L/h/kg. For the same molecule, the MRT inf (read-out: MRT0-∞) stood at 61 ± 10.1 h. Besides, the half-life under setting [1] was 42.24 ± 0.29 h.

On to `C[C@H](NC(=O)CNC(=O)[C@H](CCCNC(=N)N)NC(=O)CCN1C(=O)C=CC1=O)C(=O)N[C@@H](CC(=O)O)C(=O)N[C@@H](CCCNC(=N)N)C(=O)N[C@@H](C)C(=O)NCC(=O)N[C@@H](CO)C(=O)N[C@@H](CO)C(=O)N[C@@H](CO)C(=O)N[C@@H](CO)C(=O)N[C@@H](CCCNC(=N)N)C(=O)NCC(=O)N[C@@H](CC(=O)O)C(=O)O` [P13] ({Propanoyl(3-maleimido)}-RGADRAGSSSSRGD-OH; C-terminus assumed), for which, where the note is “read-out: AUC0-∞”, the AUC(0-inf) stood at 31.8 ± 8.09 µg·h/mL. In addition, where the note is “read-out: CL (converted)”, the clearance is 0.0315 L/h/kg. Besides, the MRT inf (read-out: MRT0-∞) came out at 56.9 ± 14.2 h. In addition, the half-life under setting [1] is 3944 ± 0.27 h.

Turning to `C[C@H](NC(=O)CNC(=O)[C@H](CCCNC(=N)N)NC(=O)CCCCCN1C(=O)C=CC1=O)C(=O)N[C@@H](CC(=O)O)C(=O)N[C@@H](CCCNC(=N)N)C(=O)N[C@@H](C)C(=O)NCC(=O)N[C@@H](CO)C(=O)N[C@@H](CO)C(=O)N[C@@H](CO)C(=O)N[C@@H](CO)C(=O)N[C@@H](CCCNC(=N)N)C(=O)NCC(=O)N[C@@H](CC(=O)O)C(=O)O` [P14] ({Hexanoyl(6-maleimido)}-RGADRAGSSSSRGD-OH; C-terminus assumed), for the setting “read-out: AUC0-∞”, the AUC(0-inf) came to 32.1 ± 7.56 µg·h/mL. In addition, the clearance (read-out: CL (converted)) is 0.0311 L/h/kg. Besides, the MRT inf (read-out: MRT0-∞) came to 57.5 ± 9.63 h. The half-life under setting [1] was 39.85 ± 0.31 h.

Source of the values: patent publication US20200270309A1, “MALEIMIDE GROUP-MODIFIED ANGIOGENESIS INHIBITOR HM-1 AND USE THEREOF” (NANJING ANJI BIOLOGICAL TECHNOLOGY CO., LTD, priority 2017, published 2020).
